From BindingDB's records for doi:10.1016/j.bioorg.2016.11.011 (Tehran University of Medical Sciences, 2017)
Where “and” joins values, the source holds several entries; their conditions need not be identical. Identical values can stand only once.

Assays:
[1] = biological target: Acetylcholinesterase (Electrophorus electricus, UniProt O42275); experiment: AChE and BChE Inhibition Assay; settings: pH 8; 25 °C
Protocol: (§1) In vitro anti-AChE activity was performed based on the modified Ellman's method [Ellman et al., Biochem. Pharmacol., […]]. […] Each well contained 50 μL potassium phosphate buffer (KH2PO4/K2HPO4, 0.1 M, pH 8), 25 μL prepared sample as described above, 25 μL enzyme with final concentration of 0.22 U/mL in buffer. They were preincubated for 15 min at room temperature, and then […] DTNB (3 mM in buffer) was added. […] The IC50 values were determined graphically from inhibition curves (log inhibitor concentration vs. percent of inhibition). A control experiment was performed under the same conditions without inhibitor and the blank contained buffer, water, DTNB, and substrate. The described method was also used for BChE inhibition assay.

[2] = biological target: Carboxylic ester hydrolase (Equus caballus, UniProt Q9N1N9); experiment: AChE and BChE Inhibition Assay; settings: pH 8; 25 °C
Protocol: as §1

Acetylcholinesterase, sequence (O42275 whole entry): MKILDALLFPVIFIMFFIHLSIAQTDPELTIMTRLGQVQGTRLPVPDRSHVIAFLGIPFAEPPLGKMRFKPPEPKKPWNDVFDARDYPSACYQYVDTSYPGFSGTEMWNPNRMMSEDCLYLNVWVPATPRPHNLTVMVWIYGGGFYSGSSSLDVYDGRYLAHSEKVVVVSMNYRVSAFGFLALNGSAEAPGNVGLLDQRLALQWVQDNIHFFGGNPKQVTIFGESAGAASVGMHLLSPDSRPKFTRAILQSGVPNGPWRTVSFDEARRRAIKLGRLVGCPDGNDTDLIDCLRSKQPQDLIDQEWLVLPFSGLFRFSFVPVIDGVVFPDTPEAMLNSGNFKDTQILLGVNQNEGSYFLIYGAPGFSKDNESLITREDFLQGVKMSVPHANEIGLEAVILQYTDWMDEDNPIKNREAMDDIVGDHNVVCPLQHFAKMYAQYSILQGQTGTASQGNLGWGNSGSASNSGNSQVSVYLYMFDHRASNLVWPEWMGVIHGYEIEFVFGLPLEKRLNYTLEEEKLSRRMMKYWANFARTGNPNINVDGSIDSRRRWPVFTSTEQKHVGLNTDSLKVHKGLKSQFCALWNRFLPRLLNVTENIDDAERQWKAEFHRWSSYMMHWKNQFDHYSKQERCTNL
Carboxylic ester hydrolase, sequence (Q9N1N9 whole entry): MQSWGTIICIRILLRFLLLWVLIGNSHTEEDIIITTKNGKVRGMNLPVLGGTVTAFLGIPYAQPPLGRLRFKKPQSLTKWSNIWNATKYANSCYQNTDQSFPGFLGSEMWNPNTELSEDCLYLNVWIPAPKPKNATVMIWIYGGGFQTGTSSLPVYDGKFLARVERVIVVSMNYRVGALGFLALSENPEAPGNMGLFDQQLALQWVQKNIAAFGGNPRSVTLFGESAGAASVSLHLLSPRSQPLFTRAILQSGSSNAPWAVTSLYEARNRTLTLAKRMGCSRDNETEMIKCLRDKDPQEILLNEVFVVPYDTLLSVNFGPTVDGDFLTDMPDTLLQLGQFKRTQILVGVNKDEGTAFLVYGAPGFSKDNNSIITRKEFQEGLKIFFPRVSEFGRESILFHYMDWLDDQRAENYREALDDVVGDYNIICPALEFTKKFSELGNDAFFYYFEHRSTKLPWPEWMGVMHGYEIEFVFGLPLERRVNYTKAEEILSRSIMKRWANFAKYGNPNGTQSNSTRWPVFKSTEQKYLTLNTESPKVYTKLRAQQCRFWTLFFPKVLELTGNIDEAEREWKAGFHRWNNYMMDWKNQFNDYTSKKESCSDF

| SMILES | IC50 [1] | IC50 [2] |
| --- | --- | --- |
| COc1cccc2cc(C(=O)NCc3cn(Cc4ccccc4C)nn3)c(=O)oc12 [8-Methoxy-N-((1-(2-methylbenzyl)-1H-1,2,3-triazol-4-yl)methyl)-2-oxo-2H-chromene-3-carboxamide (6l)] | 24.1 µM | > 100 µM |
| COc1cccc2cc(C(=O)NCc3cn(Cc4cccc(Cl)c4Cl)nn3)c(=O)oc12 [N-((1-(2,3-dichlorobenzyl)-1H-1,2,3-triazol-4-yl)methyl)-8-methoxy-2-oxo-2H-chromene-3-carboxamide (6n)] | 33.8 µM | > 100 µM |
| O=C(NCc1cnnn1Cc1cccc(Cl)c1Cl)c1cc2ccccc2oc1=O [N-((1-(2,3-dichlorobenzyl)-1H-1,2,3-triazol-5-yl)methyl)-2-oxo-2H-chromene-3-carboxamide (6h)] | 20.2 µM | 67 µM |
| O=C(NCc1cnnn1Cc1ccccc1Br)c1cc2ccccc2oc1=O [N-((1-(2-bromobenzyl)-1H-1,2,3-triazol-5-yl)methyl)-2-oxo-2H-chromene-3-carboxamide (6j)] |  | 31 µM and > 100 µM |
| COc1cccc2cc(C(=O)NCc3cn(Cc4ccccc4Cl)nn3)c(=O)oc12 [N-((1-(2-chlorobenzyl)-1H-1,2,3-triazol-4-yl)methyl)-8-methoxy-2-oxo-2H-chromene-3-carboxamide (6m)] | 15.4 µM | 96.1 µM |
| O=C(NCc1cnnn1Cc1ccccc1Cl)c1cc2ccccc2oc1=O [N-((1-(2-chlorobenzyl)-1H-1,2,3-triazol-5-yl)methyl)-2-oxo-2H-chromene-3-carboxamide (6f)] | 34 µM | > 100 µM |
| Cc1ccccc1Cn1nncc1CNC(=O)c1cc2ccccc2oc1=O [N-((1-(2-methylbenzyl)-1H-1,2,3-triazol-5-yl)methyl)-2-oxo-2H-chromene-3-carboxamide (6b)] | 78.9 µM | > 100 µM |
| COc1cccc2cc(C(=O)NCc3cn(Cc4ccc(Cl)c(Cl)c4)nn3)c(=O)oc12 [N-((1-(3,4-dichlorobenzyl)-1H-1,2,3-triazol-4-yl)methyl)-8-methoxy-2-oxo-2H-chromene-3-carboxamide (6o)] | 25.5 µM | > 100 µM |
| O=C(NCc1cnnn1Cc1ccc(Cl)c(Cl)c1)c1cc2ccccc2oc1=O [N-((1-(3,4-dichlorobenzyl)-1H-1,2,3-triazol-5-yl)methyl)-2-oxo-2H-chromene-3-carboxamide (6i)] | 16.7 µM | > 100 µM |
| O=C(NCc1cnnn1Cc1cccc(Cl)c1)c1cc2ccccc2oc1=O [N-((1-(3-chlorobenzyl)-1H-1,2,3-triazol-5-yl)methyl)-2-oxo-2H-chromene-3-carboxamide (6g)] | 92.8 µM | > 0.1 µM |
| O=C(NCc1cnnn1Cc1cccc(F)c1)c1cc2ccccc2oc1=O [N-((1-(3-fluorobenzyl)-1H-1,2,3-triazol-5-yl)methyl)-2-oxo-2H-chromene-3-carboxamide (6d)] | 48.1 µM | > 100 µM |
| O=C(NCc1cn(Cc2ccc(Br)cc2)nn1)c1cc2ccccc2oc1=O [N-((1-(4-bromobenzyl)-1H-1,2,3-triazol-4-yl)methyl)-2-oxo-2H-chromene-3-carboxamide (6k)] |  | > 100 µM and 75.3 µM |
| O=C(NCc1cnnn1Cc1ccc(F)cc1)c1cc2ccccc2oc1=O [N-((1-(4-fluorobenzyl)-1H-1,2,3-triazol-5-yl)methyl)-2-oxo-2H-chromene-3-carboxamide (6e)] | > 100 µM | > 100 µM |
| Cc1ccc(Cn2nncc2CNC(=O)c2cc3ccccc3oc2=O)cc1 [N-((1-(4-methylbenzyl)-1H-1,2,3-triazol-5-yl)methyl)-2-oxo-2H-chromene-3-carboxamide (6c)] | > 100 µM | > 100 µM |
| O=C(NCc1cnnn1Cc1ccccc1)c1cc2ccccc2oc1=O [N-((1-benzyl-1H-1,2,3-triazol-5-yl)methyl)-2-oxo-2Hchromene-3-carboxamide (6a)] | > 100 µM | > 100 µM |
